Test results reported in patent publication US7150972B2, “Sterol carrier protein-2 from the mosquito, Aedes aegypti” (Wisconsin Alumni Research Foundation, priority 2003, dated 2006).
“And” between values parts separate entries of the source, which are not always exact repeats. Identical values can stand only once.

How the values were obtained:
AeSCP-2 gene expression = assay: In vitro tissue culture of 4th instar gut and carcass with 20E; dot blotting and western blotting; format: cell-based, Aedes aegypti
Protocol: To investigate whether ecdysteroids affect AeSCP-2 expression, 12 hour-old 4th instars were dissected to separate the head, gut, and carcass. Gut and carcass were cultured in the same dish with and without 20E (60 ng/ml) for 6 hours. […] As expected, at the protein level AeSCP-2 increased in 20E-treated gut tissue cultures (FIG. 7A, inset, lane 5).
Northern and dot blotting analysis—Fifteen to twenty microgram of total RNA from indicated stages was used in Northern blotting analysis as described (Ausubel et al., 1993). After electrophoresis, RNAs in the formaldehyde-agarose gel was blotted onto positively charged Nylon membrane (Millipore, Bedford, Mass.). For dot blotting analysis, 5 ug of total RNA from three parallel samples (10 larvae per sample) of each developmental time point were blotted on to positively charged Nylon membrane as described (Millipore). The membranes were baked at 80° C. under vacuum for 1 hour and UV cross-linked (Stratagene Cloning system, La Jolla, Calif.).
Western blotting analysis—Intact animals, dissected tissues and cultured tissues were homogenized in lysis buffer (0.25M TRIS®HCl (hydroxymethyl aminomethane hydrochloride), pH 8.0/0.2% TRITON®X-100 (octyl phenol ethoxylate) 1 mM dithioerythritol/5 mM EDTA/10 mM β-mercaptoethanol/1 mM phenylmethylsulfonyl fluoride/protease inhibitor cocktail (Sigma)), and centrifuged at 12000×g at 4° C. for 15 minutes. Supernatants containing solvable proteins were stored at −80° C. Protein concentrations were determined using a BCA kit (Pierce, Rockford, Ill.). […]
In vitro tissue culture—Staged 4th instars were dissected in insect saline (Riddiford et al., 1979) to obtain gut and carcass for in vitro tissue culture study. […] Pure 20-hydroxyecdysone (Sigma) was dissolved in 95% ethanol, and the concentration was determined by UV spectrum absorption analysis at 243 nm wavelength (20E mg/ml=(OD 243×480)/ε and the ε=12,670). […] Total RNA was extracted from cultured tissues and analyzed by Dot blotting. […] Soluble proteins were extracted from cultured tissues and analyzed by western blotting.

recombinant AeSCP-2 = recombinant AeSCP-2 (Aedes aegypti, UniProt Q86PR3); assay: Radiolabeled cholesterol binding assay (Lipidex-1000), Scatchard plot; conditions: [3H]cholesterol, rAeSCP-2 8 pM per assay, 4° C. overnight, N=6
From the text: Whether AeSCP-2 binds cholesterol with high affinity was examined using radiolabeled cholesterol and recombinant AeSCP-2 (rAeSCP-2). Lipidex-1000 has been used for studying lipid/sterol binding proteins over decades and is proven to be a reliable assay (Glatz and Veerkamp, 1983; Colles et al., 1995). The recombinant protein was purified as GST-tagged fusion protein (FIG. 5, lanes 2 and 5) on the GST affinity column and the GST-tag was removed using Thrombin (FIG. 5, lane 4). After 16-hour Thrombin digest, there was still considerable amount of uncut fusion proteins (FIG. 5, lane 5) that may be resulted from insufficient concentration of Thrombin in the column (400 units/10 ml column). Further digest with increased level of Thrombin did completely remove the GST tag (data not shown). To optimize the condition for binding assay, varied concentrations of rAeSCP-2 was tested with 0.07 to 0.1 pM of radiolabeled cholesterol per assay. […]
Radiolabeled cholesterol binding assay—The binding of radiolabeled cholesterol to AeSCP-2 was measured based on the Lipidex-1000 assay (Glatz and Veerkamp, 1983) optimized for AeSCP-2. […]
Standard cholesterol solution was made from pure cholesterol (Sigma) in 95% ethanol at concentrations 0.04 nM to 20 uM. […] The slope=−Ka and Kd was calculated as […].

SCP-2 = conditions: vertebrate SCP-2, Gallegos et al., 2001; read-out: Kd values of SCP-2 cholesterol-binding; cited from earlier work

Row | SMILES | increase of AeSCP-2 mRNA level in cultured carcass (AeSCP-2 gene expression; 20E 60 ng/ml, 6 hours, carcass of 12 hour-old 4th instars) | increase of AeSCP-2 mRNA level in cultured gut (AeSCP-2 gene expression; 20E 60 ng/ml, 6 hours, gut of 12 hour-old 4th instars) | AeSCP-2 protein level in gut tissue cultures (AeSCP-2 gene expression; 20E-treated gut, western blot, FIG. 7 inset lane 5) | Kd (recombinant AeSCP-2) | Kd (SCP-2)
1 | CC(C)(O)CC[C@@H](O)[C@](C)(O)[C@H]1CC[C@@]2(O)C3=CC(=O)[C@@H]4C[C@@H](O)[C@@H](O)C[C@]4(C)[C@H]3CC[C@]12C [20E, 20-hydroxyecdysone] | not in the carcass | 2 fold | increased |  | 
2 | CC(C)CCC[C@@H](C)[C@H]1CC[C@H]2[C@@H]3CC=C4C[C@@H](O)CC[C@]4(C)[C@H]3CC[C@]12C [cholesterol] |  |  |  | 5.5 nM and 5.6 nM | 4 to 2600 nM
